Reference: article PMC10489073 (Molecules, 2023)

How the values were obtained:
[1] = target: T1, chymotrypsin-like (CT-L) activity of the 20S proteasome (Homo sapiens, UniProt P20618+P28074); test: 20S proteasome inhibition assay (Proteasome-Glo Chymotrypsin-Like); type: biochemical; details: n ≥ 3, SD <20% of the mean, read-out: IC50 toward Chymotrypsin-like (CT-L)
T1 construct: purchased R&D systems, Minneapolis, MN, USA
Method: The 20S proteasome inhibition assay was performed using the Proteasome-Glo™ Chymotrypsin-Like Assay kit (Promega, Alexandria, NSW, Australia). Suc-LLVY-aminoluciferin is a substate that can be cleaved by the 20S proteasome, release the […] (aminoluciferin) and allow the luciferase reaction to produce light. Gradient concentration of tested compounds and the purified 20S proteasome enzyme (R&D systems, Minneapolis, MN, USA) were successively added into a transparent 96-well plate and mixed thoroughly. Then, 50 µL of a […] reagent was added. Gently mix contents with a plate shaker at 300 to 500 rpm for 30 s. Incubate at room temperature for an hour. The luminescence was recorded via the Tecan Spark multimode microplate.

P3x63Ag8.653 = test: Cell proliferation analysis (MTT); type: cell-based, murine; details: Mus musculus, 48 h, read-out: Anti-proliferative activity IC50, P3x63Ag8.653
Method: (§1) All tumor cell lines in the current research were grown in a certain growth medium containing 10% FBS and 1% (v/v/v) penicillin–streptomycin–amphotericin at 37 °C in 5% CO2. Cells were seeded into 96-well plates at a density of 8 × 10^3 cells per well for tumor adherent cells and 2 × 10^4 cells per well for tumor-suspended cells in a final volume of 100 μL. After 12 h, 100 μL of various concentrations of compounds was added to each and incubated for 48 h. A 0.5% MTT solution was added per well before the intermixture was incubated for another 4 h, and formazan formed from MTT was extracted by adding […] of DMSO rocking for 15 min. Absorbance was measured at 570 nm using a Spark multimode microplate from Tecan. The IC50 values were calculated according to the inhibition ratios.

A2780 = test: Cell proliferation analysis (MTT); type: cell-based; details: Homo sapiens, 48 h, read-out: Anti-proliferative activity IC50, A2780
Method: as §1

ARP-1 = test: Cell proliferation analysis (MTT); type: cell-based; details: 48 h, read-out: Anti-proliferative activity IC50, ARP-1
Method: as §1

HCT116 = test: Cell proliferation analysis (MTT); type: cell-based; details: Homo sapiens, HCT-116, 48 h, read-out: Anti-proliferative activity IC50, HCT116
Method: as §1

HEL = test: Cell proliferation analysis (MTT); type: cell-based; details: Homo sapiens, 48 h, read-out: Anti-proliferative activity IC50, HEL
Method: as §1

HT-29 = test: Cell proliferation analysis (MTT); type: cell-based; details: Homo sapiens, 48 h, read-out: Anti-proliferative activity IC50, HT-29
Method: as §1

Hela = test: Cell proliferation analysis (MTT); type: cell-based; details: Homo sapiens, 48 h, read-out: Anti-proliferative activity IC50, Hela
Method: as §1

KG1 = test: Cell proliferation analysis (MTT); type: cell-based; details: Homo sapiens, KG-1, 48 h, read-out: Anti-proliferative activity IC50, KG1
Method: as §1

MDA-MB-231 = test: Cell proliferation analysis (MTT); type: cell-based; details: Homo sapiens, 48 h, read-out: Anti-proliferative activity IC50, MDA-MB-231
Method: as §1

MM.1S = test: Cell proliferation analysis (MTT); type: cell-based; details: Homo sapiens, MM1.S, 48 h, read-out: Anti-proliferative activity IC50, MM.1S
Method: as §1

PC3 = test: Cell proliferation analysis (MTT); type: cell-based; details: Homo sapiens, PC-3, 48 h, read-out: Anti-proliferative activity IC50, PC3
Method: as §1

RPMI-8266 = test: Cell proliferation analysis (MTT); type: cell-based; details: RPMI8266, 48 h, read-out: Anti-proliferative activity IC50, RPMI-8266
Method: as §1

SP2 = test: Cell proliferation analysis (MTT); type: cell-based; details: 48 h, read-out: Anti-proliferative activity IC50, SP2
Method: as §1

U251 = test: Cell proliferation analysis (MTT); type: cell-based; details: Homo sapiens, U-251, 48 h, read-out: Anti-proliferative activity IC50, U251
Method: as §1

U266 = test: Cell proliferation analysis (MTT); type: cell-based; details: Homo sapiens, U-266, 48 h, read-out: Anti-proliferative activity IC50, U266
Method: as §1

HEK293 = test: Cell proliferation analysis (MTT), normal cells; type: cell-based; details: Homo sapiens, non-malignant cell line, 48 h, read-out: Anti-proliferative activity IC50, HEK293
Method: as §1

HL-7702 = test: Cell proliferation analysis (MTT), normal cells; type: cell-based; details: Homo sapiens, L02, non-malignant cell line, 48 h, read-out: Anti-proliferative activity IC50, HL-7702
Method: as §1

[2] = test system: subcutaneous P3x63Ag8.653 tumor; test: In vivo P3x63Ag8.653 tumor transplant model; design: species or system mice; details: 0.05 mmol/kg oral, two weeks
Method: The animal experiments were conducted under the guidelines of the “Regulations for the Administration of Affairs Concerning Experimental Animals” (revised 2017, State Council No. 676). For the P3x63Ag8.653 tumor development, male mice were subcutaneously injected with 200 μL murine P3x63Ag8.653 cells with a density of 1 × 10^7/mL. On the eighth day after injection, the transplanted mice were randomized into treatment and control groups. The tested compounds were administrated orally at the prescribed dose biweekly for two weeks. After two weeks of administration, mice were executed, and the tumor tissues were dissected and weighed. T/C was calculated according to the following formula: T/C = the mean RTV of the treated group/the mean RTV of the control group, where RTV is the relative tumor volume = Vt/V0 (Vt, the tumor volume measured at the end of treatment; V0, the tumor volume measured at the beginning of treatment).

[3] = high concentrations up to 1 mM; cited from earlier work

IC50 [1]: > 10 µM
IC50 (A2780): > 200 µM
IC50 (HCT116): > 200 µM
IC50 (HT-29): > 200 µM
IC50 (Hela): > 200 µM
IC50 (MDA-MB-231): > 200 µM
IC50 (MM.1S): > 200 µM
IC50 (PC3): > 200 µM
IC50 (U251): > 200 µM
IC50 (U266): > 200 µM
SMILES: CC(C)C[C@H](NC(=O)[C@@H](O)[C@H](N)Cc1ccccc1)C(=O)O [Ubenimex]
IC50 (P3x63Ag8.653): > 200 µM
IC50 (ARP-1): > 200 µM
IC50 (HEL): > 200 µM
IC50 (KG1): > 200 µM
IC50 (RPMI-8266): > 200 µM
IC50 (SP2): > 200 µM
IC50 (HEK293): > 200 µM
IC50 (HL-7702): > 200 µM
anti-tumor activity [2]: moderate anti-tumor activity
anti-proliferation activity [3]: not apparent
